Test results from ChEMBL document CHEMBL1156042, “First stereoselective total synthesis and anticancer activity of new amide alkaloids of roots of pepper” (Bioorg Med Chem Lett, 2009).
Converted amounts (≈) assume the structure as drawn.

Columns and labels:
Assay type in all cases: functional, cell-based; call rule not given here
MCF7 = test: Anticancer activity against human MCF7 cells by MTT method
A549 = test: Anticancer activity against human A549 cells by MTT method
HT-29 = test: Anticancer activity against human HT-29 cells by MTT method
[1] = Homo sapiens, A549, read-out: IC50
[2] = Homo sapiens, HT-29, read-out: IC50

IC50 (MCF7)	IC50 (A549; [1]) [µg/mL]	IC50 (HT-29; [2]) [µg/mL]	IC50 (A549; a549)	IC50 (HT-29; ht-29)	SMILES
Not Active	135 (≈ 501 µM)	125 (≈ 464 µM)	–	–	CCCCC[C@@H](O)[C@H](O)/C=C/C(=O)N1CCCCC1
Not Active	–	181 (≈ 789 µM)	Not Active	–	CCC[C@@H](O)[C@H](O)/C=C/C(=O)NCC(C)C
Not Active	182 (≈ 676 µM)	–	–	Not Active	CCCCC[C@@H](O)[C@@H](O)/C=C/C(=O)N1CCCCC1
